Laboratory results as given in PMC11643690, “Chelating Properties of N6O-Donors Toward Cu(II) Ions: Speciation in Aqueous Environments and Catalytic Activity of the Dinuclear Complexes” (Molecules, 2024).

How the values were obtained:
[1] = Peroxidase-like (pro-oxidant) activity, OPD oxidation to DAP by H2O2; format: biochemical; conditions: 3.2 μM complex or salt, 0.32 mM OPD, 24 mM H2O2, PBS pH 7.8, 18 h, 25 °C
Description: The pro-oxidant activity is named after another enzyme, the peroxidase. It is important to underline that this is a drawback of the studied complexes. Peroxidase, such as the already described […], decomposes hydrogen peroxide, producing water, but at the cost of oxidizing another substrate. Similarly, the complexes described here could remove hydrogen peroxide, catalyzing the oxidation of an organic substrate and leading to an enhancement of oxidative stress. Since all the catalytic measurements made so far were in the absence of an oxidizable substrate (excluding the catalyst itself), it is important to also verify this phenomenon. […] This variation in absorbance was monitored for 18 h via UV–Vis spectroscopy. […]
Figure S52: A) UV-vis spectra of [Cu2(L-RNH2)(H2O)2](ClO4)3 in a CAT assay measured every 10 minutes and centered at 450 nm. […] The arrow indicates the absorbance trend over time. B) Oxygen evolution (blue line) and absorbance at 244 nm (green dots) versus time.
For the peroxidase-like activity the variation of absorbance over time was monitored via UV-vis spectroscopy. The substrate OPD (o-phenylenediamine) was oxidized to DAP (2,3-diaminephenazine) by H2O2 in the presence of copper ions, leading to an increase of absorbance at 418 nm. […] The kinetic was recorded in a quartz cuvette with an optical path of 1 cm for 18h (acquiring a spectrum every 20 minutes) at 25°C. […]

[2] = UV–Vis titration of ligands with Cu(ClO4)2, binding constant by non-linear regression; conditions: global formation constant β1,2 (1 ligand : 2 Cu(II)); 1 µM ligand, 5% v/v MeOH/BBS 50 mM, pH 7.4, 25 °C
Protocol: To determine the overall equilibrium constant β1,2 (Kbind), a solution of the ligand was titrated with aliquots of 0.2 equivalents of Cu(II). Monitoring the formation of the complex via UV–Vis spectroscopy, the absorbance around 260 nm, 300 nm, 450 nm, and 700 nm increased during the titration (Figure 3a) in all cases. The latter two bands are visible only at high concentrations (>0.1 mM). These changes are caused by the formation of the complex and the disappearance of the free ligand.
In Figure 3b, the linear increase in the absorbance change (ΔAbs) at 240 nm, upon an increase in Cu(II) amount, is evident, leading to a sharp plateau around 2 equivalents. […] The binding constants were determined by non-linear regression analysis of Equation (2), (2) ∆A/b=(K1∆A1Cu+ β1,2∆A2Cu^2)/1+K1Cu+ β1,2Cu^2 which traces the correlation “ΔAbs/b vs. Cu(II) concentration,” according to K. Connors. In this equation, ΔA is the differences in absorbance at a certain wavelength, b is the optical path (1 cm), K1 is the constant for the formation of the complex 1:1, and β1,2 is the global formation constant (Kbind) for the complex 1:2. ΔA1 and ΔA2 are the differences in absorbance due to the formation of the 1:1 complex and the 1:2 complex, respectively. […]
UV-vis spectra of ligands and complexes were recorded in a quartz cuvette, with 1 cm of optical path. […]

[3] = Potentiometric titration of the Cu(II)/L-CH3 system (constants of in situ-formed complexes); format: binding; conditions: for logβi of in situ-formed Cu(II) complex species: overall constant, Cu(II):L 1:1 and 2:1, DMSO 5% (v/v)/H2O (HCl/KCl); for logKi of in situ-formed Cu(II) complex species: stepwise protonation constant
Protocol: The next step was the analysis of the system with L-CH3 and Cu(II). For a better investigation of the binging abilities of the L-CH3 ligand, the titration was performed both for the Cu(II):L-CH3 molar ratio = 1:1 and for 2:1. The overall (logβi) and stepwise (logKi) protonation constants of in situ-formed complexes are collected in Table 2. Depending on pH, L-CH3 forms mono- and di-nuclear complexes with Cu(II) ions, their relative abundance depending on the metal-to-ligand molar ratio.
Potentiometric measurements were carried out using the Metrohm pH-meter system (Herisau, Switzerland) with a Metrohm semi-micro combination electrode at 25 °C, calibrated in a hydrogen ion concentration using HCl. The ligands were dissolved in DMSO (5% v/v/H2O (HCl/KCl)) in order to obtain a concentration of 1 mM. The titrant (KOH 0.1M) was added with a micrometric syringe at 298 K in the pH range of 2.5–11.5 in an argon atmosphere. The stability constants and stoichiometry of the complexes were calculated using the titration curves and the SUPERQUAD and HYPERQUAD [47, 48].

[4] = cited from earlier work

| logβi of in situ-formed Cu(II) complex species [3] | logKi of in situ-formed Cu(II) complex species [3] | Compound | further results |
| --- | --- | --- | --- |
| 15.50 ± 0.03 | 9.26 | Cc1cc(CN(Cc2ccccn2)Cc2ccccn2)c([O-])c(CN(Cc2ccccn2)Cc2ccccn2)c1.[Cu+2].[Cu+2] [[Cu2L]^3+] | – |
| 17.02 ± 0.03 | 6.82 | Cc1cc(CN(Cc2ccccn2)Cc2ccccn2)c(O)c(CN(Cc2ccccn2)Cc2ccccn2)c1.[Cu+2] [[CuHL]^2+] | – |
| 10.20 ± 0.03 | 9.58 | Cc1cc(CN(Cc2ccccn2)Cc2ccccn2)c([O-])c(CN(Cc2ccccn2)Cc2ccccn2)c1.[Cu+2] [[CuL]^+] | – |

Further lines, the compound ahead of its results:

| Compound | logβi of in situ-formed Cu(II) complex species [3] | logKi of in situ-formed Cu(II) complex species [3] | further results |
| --- | --- | --- | --- |
| O.O.O.O.O.O.[Cu+2].[O-][Cl+3]([O-])([O-])[O-].[O-][Cl+3]([O-])([O-])[O-] [Cu(ClO4)2, copper perchlorate] | – | – | peroxidase-like (pro-oxidant) activity, Abs at 418 nm vs time [1]: much higher |
| NCCc1cc(CN(Cc2ccccn2)Cc2ccccn2)c(O)c(CN(Cc2ccccn2)Cc2ccccn2)c1 [HL-RNH2] | – | – | Kbind [2]: > 10^12 M^−2 |
| Cu/Zn-SOD(human): native Cu/Zn superoxide dismutase enzyme | – | – | log(kSOD) [4]: 9.30 |
